{
  "source": "patent US7388006B2",
  "about": "“Non-steroidal progesting” (Bayer Schering Pharma AG, priority 2002, dated 2008)",
  "key": {"rat mammary epithelium": {"tested_on": "rat mammary epithelium", "test": "MIB-5 immunohistochemistry, proliferation of the mammary epithelium", "type": "in vivo", "conditions": "FIG. 2", "experimental": "In order to determine the effects of test progestins according to the present invention, in particular compound ((+)-1), in mammary gland differentiation and proliferation, premature female rats (Wistar Han, SPF) are ovariectomized at the age of 21 days, 4 to 6 days before treatment start. The animals are treated for 6 days with standard estrogen (estrone (E1), 70 μg/kg) and the test progestin ((+)-1) (application volume: 0.1 ml/50 g body weight; vehicle: benzylbenzoate/castor oil (1+4 v/v); subcutaneous). Control groups are e.g.: vehicle, estrone without progestin, estradiol together with a known progestin, e.g. R5020 (promegestone). After the 6-day treatment the animals are killed with carbon dioxide.\nFor the whole mount staining, animals are shaved in the left abdominal inguinal mammary region, which is cut from the body together with the skin. For the histological/immunohistochemical analyses the right abdominal inguinal mammary gland is cut from the body together with the connective-tissue adhered thereto and fixed in 3.7% formalin in PBS (phosphate buffer saline; without Ca^2+/Mg^2+).\nFor a more detailed evaluation of the proliferation of the mammary epithelium, cells are stained with the proliferation marker MIB-5 as follows (cf. FIG. 2): Mammary glands are fixed in 4% formaldehyde/PBS for 24 h and embedded in paraffm. 4 μm sections are spread on slides, deparaffinized, treated with microwaves for 10 min. in citrate buffer pH 6.0 and rinsed with PBS. Slides are then blocked with 3% H2O2/methanol for 15 min., Blockingkit (Vektor, no. SP-2001) for 10 min. and rat serum (Sigma, no. S-7648) diluted 1:2 in PBS for 30 min to reduce nonspecific staining and rinsed in PBS. Slides are incubated for 1 hour with monoclonal antibody MIB-5 (Dianova, no. Dia-5055), which is specific for the rat Ki-67 antigen (1:200 diluted in PBS/0.2% BSA). […]\nIn order to characterize a test compound, the percentage of MIB-5 stained mammary epithelium cells is determined. […]"}, "[1]": {"biological_target": "T1, mineralocorticoid receptor (MR) (Homo sapiens, UniProt P08235)", "T1 sequence (P08235 1-984)": "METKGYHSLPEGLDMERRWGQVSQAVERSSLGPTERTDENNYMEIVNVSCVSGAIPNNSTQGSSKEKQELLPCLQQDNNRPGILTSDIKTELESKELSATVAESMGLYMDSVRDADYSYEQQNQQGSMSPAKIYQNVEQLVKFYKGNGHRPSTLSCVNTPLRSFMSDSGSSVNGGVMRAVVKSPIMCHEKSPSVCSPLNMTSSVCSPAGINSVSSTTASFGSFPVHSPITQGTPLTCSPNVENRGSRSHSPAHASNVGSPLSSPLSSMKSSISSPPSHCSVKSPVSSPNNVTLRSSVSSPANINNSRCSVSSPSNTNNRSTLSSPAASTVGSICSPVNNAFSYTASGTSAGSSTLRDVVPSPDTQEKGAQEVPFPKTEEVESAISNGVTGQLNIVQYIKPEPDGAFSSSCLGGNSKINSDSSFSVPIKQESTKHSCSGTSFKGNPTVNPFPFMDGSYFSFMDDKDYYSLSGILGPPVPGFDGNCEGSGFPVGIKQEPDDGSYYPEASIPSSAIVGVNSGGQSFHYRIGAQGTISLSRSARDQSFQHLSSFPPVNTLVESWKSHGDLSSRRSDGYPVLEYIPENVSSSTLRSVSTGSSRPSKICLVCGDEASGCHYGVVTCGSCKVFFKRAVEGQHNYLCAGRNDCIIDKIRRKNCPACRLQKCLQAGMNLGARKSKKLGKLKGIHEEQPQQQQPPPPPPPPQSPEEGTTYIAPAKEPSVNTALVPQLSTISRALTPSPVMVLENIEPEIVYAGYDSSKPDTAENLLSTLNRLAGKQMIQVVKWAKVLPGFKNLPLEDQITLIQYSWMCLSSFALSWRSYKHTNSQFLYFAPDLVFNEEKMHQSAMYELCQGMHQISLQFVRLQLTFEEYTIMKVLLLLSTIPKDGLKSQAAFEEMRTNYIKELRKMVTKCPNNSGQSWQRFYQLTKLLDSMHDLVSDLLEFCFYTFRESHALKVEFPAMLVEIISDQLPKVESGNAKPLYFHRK", "test": "Binding to the mineralocorticoid receptor in vitro"}},
  "data": [
    {"compound": "O=C1OCc2cc(NC(=O)C(O)(CC3(c4cc(C(F)(F)F)ccc4F)CC3)C(F)(F)F)ccc21", "note": "(single isomer, unassigned; (+)) [((+)-1), (+)-5-{2-hydroxy-3-[1-(2-fluoro-5-trifluoromethylphenyl)-cyclopropyl]-2-trifluoromethyl-propionylamino}-phthalide]", "values": [
      {"measurement": "MIB-5 positive cells", "setting": "rat mammary epithelium; 1 mg/kg/d", "result": "~12", "unit": "%"},
      {"measurement": "MIB-5 positive cells, dose dependence in words", "setting": "rat mammary epithelium; increasing concentrations", "result": "dose-dependent decrease of MIB-5 positive cells"},
      {"measurement": "Affinity for the mineralocorticoid receptor (MR)", "setting": "[1]", "result": "negligible affinity"}
    ]}
  ]
}
